{"source": "patent US11542508B2", "about": "“Isolated polynucleotides and polypeptides and methods of using same for expressing an expression product of interest” (priority 2016, dated 2023)", "format_in_all_cases": "cell-based", "key": {"[1]": {"tested_on": "phi3T", "assay": "Growth dynamics of phage-infected cultures (phi3T infection of B. subtilis 168)", "experimental": "Specifically, overnight cultures of B. subtilis strain 168 were diluted 1:50 in LB media supplemented with 0.1 mM MnCl2 and 5 mM MgCl2, and incubated at 37° C. with shaking until reaching optical density (O.D) 600 nm=0.5. Phages (phi29, phi105, rho14 or phi3T) were added to the bacterial culture at MOI=1 and incubated for 3 hours. The media were centrifuged at 4000 rpm for 10 minutes at 4° C. and the supernatant was filtered with 0.2 μm filer (GE Healthcare Life Sciences, Whatman, CAT #10462200). Phages and large molecules were further filtered out from the media by using Amicon Ultra centrifugal filters at a cutoff of 3,000 NMWL (3 kDa) (Milipore, CAT #UFC900324). A plaque assay was performed in order to verify that no phages were left in the medium.\n7.5 mg (per reaction) of Proteinase K-Agarose from Tritirachium album (Sigma, CAT #P9290) were washed twice with 750 μl of sterile water and then resuspended with 750 μl of LB supplemented with 0.1 mM MnCl2 and 5 mM MgCl2. Following, the tubes were centrifuged again and the supernatant was discarded. 1.5 ml of phi3T-derived conditioned medium or control medium was added to a tube containing the washed proteinase K. The media were incubated for 2 hours at 37° C. with the proteinase K. The media were centrifuged and the supernatants were collected for the infection assay.\n(§1) Overnight cultures of bacteria were diluted 1:100 in LB media and incubated at 37° C. with shaking until reaching O.D 600 nm=0.1. The bacterial culture was centrifuged at 4000 rpm for 10 minutes at room temperature. The supernatant was discarded and the pellet was resuspended in LB medium supplemented with 0.1 mM MnCl2 and 5 mM MgCl2 at 10% of the initial volume. The concentrated bacterial culture was added to conditioned medium or medium supplemented with synthesized arbitrium peptide in a ratio of 1:9 (bacteria to medium) and incubated for 1 hour at room temperature. Following, the culture was infected with phages at MOI=0.1. Optical density measurements at a wavelength of 600 nm were taken using a TECAN Infinite 200 plate reader in a 96-wells plate."}, "[2]": {"target": "AimR (Bacillus phage phi3T, UniProt P0DOE3)", "sequence (P0DOE3 whole entry)": "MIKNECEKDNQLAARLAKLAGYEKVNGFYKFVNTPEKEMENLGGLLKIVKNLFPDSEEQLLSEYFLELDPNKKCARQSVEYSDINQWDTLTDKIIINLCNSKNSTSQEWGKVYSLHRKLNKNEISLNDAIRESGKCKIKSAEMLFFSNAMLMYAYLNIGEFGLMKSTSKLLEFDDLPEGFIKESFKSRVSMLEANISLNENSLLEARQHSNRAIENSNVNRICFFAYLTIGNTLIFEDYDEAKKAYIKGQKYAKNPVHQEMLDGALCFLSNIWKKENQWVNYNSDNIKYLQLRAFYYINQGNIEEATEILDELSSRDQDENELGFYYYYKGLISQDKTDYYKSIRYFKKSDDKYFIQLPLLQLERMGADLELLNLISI", "assay": "ChIP-seq of His-tagged AimR on phage DNA", "conditions": "15 minutes after phage infection, with or without 1 μM peptide", "experimental": "For the ChIP-seq experiments, B. subtilis cell cultures were grown in 100 ml to O.D of 0.1 in LB at 37° C. Following, 50 ml of culture was centrifuged at 4000 rpm for 10 minutes at room temperature. The pellets were then suspended with 25 ml LB either containing or lacking the peptide (SAIRGA, SEQ ID NO: 269) at a final concentration of 1 μM. The cultures were placed for an additional incubation hour at room temperature with shaking. The cultures were then infected with phage (MOI=0.5) having a final plaque forming units (PFU) of 5×10^7 PFU/ml phages. 15 minutes post phage infection the cultures were centrifuged at 3000 g for 5 minutes at 4° C. The supernatant was discarded and the pellets were resuspended with 1 ml of ice-cold 1×PBS (10 mM Phosphate, 137 mM NaCl, 2.7 mM KCl, pH of 7.4).\nFor the formaldehyde fixation of protein to DNA, the 1 ml PBS resuspended pellets were mixed with 62.5 μl formaldehyde (Thermoscientific 16% formaldehyde solution (w/v) methanol-free ampule) yielding a final formaldehyde concentration of 1% (w/v) within the solution. The formaldehyde-containing cell suspension was incubated at room temperature for 10 minutes with mild agitation. Following, 75 μl 2M Glycine (f.c. 150 mM) was added to quench residual formaldehyde. Glycine-containing samples were kept on ice for an additional 10 minutes followed by centrifugation at 5500 g for 1 minute at 4° C. […]"}, "[3]": {"tested_on": "spBeta", "assay": "Growth dynamics of phage-infected cultures (spBeta infection of B. subtilis BEST7003)", "conditions": "B. subtilis BEST7003 infected by spBeta at MOI=0.1, LB supplemented with synthesized peptide", "experimental": "as §1"}}}
{"compound": "CC[C@H](C)[C@H](NC(=O)[C@H](C)NC(=O)[C@@H](N)CO)C(=O)N[C@@H](CCCNC(=N)N)C(=O)NCC(=O)N[C@@H](C)C(=O)O", "note": "[SAIRGA, Ser-Ala-Ile-Arg-Gly-Ala]", "values": [{"measurement": "effect on the phage infection dynamics (culture lysis, growth curve)", "setting": "[1]; B. subtilis 168 infected by phi3T at MOI=0.1, LB supplemented with synthesized peptide", "value": "reduced culture lysis"}, {"measurement": "peptide concentration of maximal effect on the culture growth curve", "setting": "[1]; B. subtilis 168 infected by phi3T at MOI=0.1, effect saturated above", "value": 500, "unit": "nM"}, {"measurement": "binding of AimR to its site in the phage genome (ChIP-seq)", "setting": "[2]", "value": "this binding only occurred when the arbitrium peptide was absent"}, {"measurement": "effect on lysogeny / infection dynamics of spBeta", "setting": "[3]", "value": "had no effect on the infection dynamics of spBeta"}]}
